The nature of series [1]: Mouse lung tissue binding (equilibrium dialysis, RED). In kind it is in vitro ADME. The following applies: for Mouse LTB %: mouse lung tissue binding, % bound (Table 3); for Lung tissue binding, %: Table 5, sulfone-sulfide analog pairs. Put shortly: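 Equilibrium dialysis of mouse lung homogenate against buffer at 37° C. Method (a) used 1 μM compound, pH 7.4 homogenate and 6 h dialysis. Method (b) used 5 μM compound in 1:9 homogenate (0.05 M potassium phosphate pH 7.4) and 4 h dialysis, with fu corrected for dilution. Both were run in triplicate with LC-MS/MS quantification.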

The target of series [2] is Recombinant human JAK2 kinase domain protein (Residues 812-1132) (Homo sapiens, UniProt O60674). As to the kind of experiment: JAK2 biochemical assay (microfluidic mobility shift, peptide phosphorylation). The settings on record: Enzyme JAK2 Ki (nM), 25 μM ATP, 0.2 nM total JAK2.
Method: The in vitro biochemical assays quantify JAK-catalyzed phosphorylation of a synthetic peptide, as detected using a LabChip® EZ Reader II microfluidic mobility shift instrument (PerkinElmer; Waltham, Mass.). […] Y-1B is fluorescently labeled on the N-terminus with 5-FAM (5-carboxyfluorescein) and contains a single tyrosine residue (Y) that can be phosphorylated by JAK activity. The substrate peptide stock is prepared in DMSO at 5 mM.
In each titration experiment, test compound was tested in duplicate at each of the twelve concentrations. Blank reactions contained ATP, peptide, and DMSO, but no JAK or test compound, whereas uninhibited control reactions contained ATP, peptide, JAK, and DMSO, but no test compound.
Peptide plus ATP mixture (24 μL) was added to 1 μL of test compound in DMSO (or DMSO alone). The reactions were initiated by adding 25 μL of JAK enzyme to the inhibitor/peptide/ATP mixture before thoroughly mixing the resultant solution. Reactions were incubated at room temperature (22° C.-23° C.) in a final volume of 50 μL per well in 384-well plates.
In each reaction, the residual Y-1B substrate and the phospho-peptide product generated were separated using the EZ Reader II instrument. Electrophoretic separation of molecules of product from molecules of substrate was achieved using downstream and upstream voltages of −500 and −2600 V, respectively, at an operating pressure of −1.3 psi.
The extent (or percent) of conversion of substrate to product was calculated from the corresponding peak heights in the electropherogram using HTS Well Analyzer software, Version 5.2 (PerkinElmer), and the following equation (Equation 1): % conversion=[P÷(S+P)]×100 Equation 1 where S and P represent the peak heights of the substrate and product, respectively. After any baseline signal from blank wells containing no JAK was subtracted from the signal of all test wells, the % conversion data were converted to fractional activity as shown in Equation 2, where vi and vo are the % conversion in the presence and absence of test compound, respectively.
Series [3] has as its target T1, recombinant human JAK1 kinase domain protein (Residues 854-1154) (Homo sapiens, UniProt P23458).
T1 construct: human JAK1 kinase domain protein (Residues 854-1154); purchased Proteros Biostructures GmbH (Martinsried, Germany); host or cells: insect cells
Put plainly: JAK1 biochemical assay (microfluidic mobility shift, peptide phosphorylation). The settings on record: 25 μM ATP, 1 nM total JAK1; read-out: Enzyme JAK1 Ki. The text has this:
JAK1 and JAK2 Biochemical Assays

Series [4] in a line: Cell cytotoxicity assay HEK-293T (CellTiter-Glo, 72 hours). It is filed as cell-based. The following applies: human, HEK-293T cells, read-out: Cytotox K-293 EC50. Summed up: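 HEK-293T or Jurkat E6-1 cells plated at 450 cells/well were treated the next day with a 10-point titration from 50 μM top (0.5% DMSO final). After 72 h at 37° C, viability was read by CellTiter-Glo luminescence.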
(In ATP-based viability assays light output follows the ATP content of the culture.)

Where [5] appears, read: Table 3, 72 hours, top concentration of 50 μM.

Like-named read-outs stand apart in the source and are kept apart here.

T1 sequence (P23458 854-1154): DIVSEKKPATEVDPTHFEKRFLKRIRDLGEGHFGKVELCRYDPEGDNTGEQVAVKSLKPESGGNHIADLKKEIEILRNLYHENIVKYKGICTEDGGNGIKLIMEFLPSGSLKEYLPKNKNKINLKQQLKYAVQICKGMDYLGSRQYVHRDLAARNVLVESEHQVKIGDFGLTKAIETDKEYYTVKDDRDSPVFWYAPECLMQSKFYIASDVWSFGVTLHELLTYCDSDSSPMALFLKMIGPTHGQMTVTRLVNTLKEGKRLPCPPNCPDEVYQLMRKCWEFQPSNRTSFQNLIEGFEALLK
Sequence of Recombinant human JAK2 kinase domain protein (Residues 812-1132) (O60674 812-1132): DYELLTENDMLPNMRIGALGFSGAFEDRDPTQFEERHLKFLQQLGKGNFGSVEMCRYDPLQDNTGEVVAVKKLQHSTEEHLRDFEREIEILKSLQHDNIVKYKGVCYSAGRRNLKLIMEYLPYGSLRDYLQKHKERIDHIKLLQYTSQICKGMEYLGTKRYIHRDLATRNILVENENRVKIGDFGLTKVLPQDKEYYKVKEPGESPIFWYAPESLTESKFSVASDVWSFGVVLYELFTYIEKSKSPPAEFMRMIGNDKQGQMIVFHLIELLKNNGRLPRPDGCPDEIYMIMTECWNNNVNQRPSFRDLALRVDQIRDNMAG

Regarding `COc1cccc(S(=O)(=O)c2ccc(OC(F)F)c(-c3nn(C)cc3NC(=O)c3cnn4cccnc34)c2)c1` [Example 12, N-[3-[2-(difluoromethoxy)-5-(3-methoxyphenyl)sulfonyl-phenyl]-1-methyl-pyrazol-4-yl]pyrazolo[1,5-a]pyrimidine-3-carboxamide], the “Mouse LTB %” value in series [1] amounted to 97.1%. Also, the inhibition constant Ki amounted to 0.14 nM in series [2] and 0.24 nM in series [3]. Moreover, the EC50 at 72 h in series [4] (setting [5]) is 36000 nM.
For the molecule `Cn1cc(NC(=O)c2cnn3cccnc23)c(-c2cc(S(=O)(=O)C3COC3)ccc2OC(F)F)n1` [Example 13, N-[3-[2-(difluoromethoxy)-5-(oxetan-3-ylsulfonyl)phenyl]-1-methyl-pyrazol-4-yl]pyrazolo[1,5-a]pyrimidine-3-carboxamide], in series [1], the “Lung tissue binding, %” value is recorded as 85.8% and the “Mouse LTB %” value was 85%. The Ki in series [2] was found to be 0.19 nM. In series [3], the Ki came out at 0.4 nM. In series [4] (setting [5]), the EC50 at 72 h turned out to be 31000 nM.
`Cn1cc(NC(=O)c2cnn3cccnc23)c(-c2cc(S(=O)(=O)c3ccncc3)ccc2OC(F)F)n1` [Example 16, N-[3-[2-(difluoromethoxy)-5-(4-pyridylsulfonyl)phenyl]-1-methyl-pyrazol-4-yl]pyrazolo[1,5-a]pyrimidine-3-carboxamide]: the “Mouse LTB %” value in series [1] is 87.3%. Besides, the values for the inhibition constant (Ki) in series [2] and in series [3] were 0.19 nM and 0.32 nM, respectively. Besides, the EC50 at 72 h in series [4] (setting [5]) is 7600 nM.
Turning to `Cn1cc(NC(=O)c2cnn3cccnc23)c(-c2cc(S(C)(=O)=O)ccc2OC(F)F)n1` [Example 17, N-[3-[2-(difluoromethoxy)-5-methylsulfonyl-phenyl]-1-methyl-pyrazol-4-yl]pyrazolo[1,5-a]pyrimidine-3-carboxamide], in series [1], the “Mouse LTB %” value worked out at 85.8%. Also, the values for the inhibition constant (Ki) in series [2] and in series [3] were 0.1 nM and 0.22 nM, respectively. Also, the concentration giving a half-maximal response (EC50) at 72 h is 7300 nM in series [4] (setting [5]) and 7300 nM in series [4] (Table 4, methyl-desmethyl analog pairs).
Regarding `Cn1cc(NC(=O)c2cnn3cccnc23)c(-c2cc(S(=O)(=O)N3CCC3)ccc2OC(F)F)n1` [Example 21, N-[3-[5-(azetidin-1-ylsulfonyl)-2-(difluoromethoxy)phenyl]-1-methyl-pyrazol-4-yl]pyrazolo[1,5-a]pyrimidine-3-carboxamide], the “Mouse LTB %” value in series [1] was found to be 83%. Moreover, the Ki in series [2] came to 0.16 nM; in series [3], 0.22 nM. Also, the concentration giving a half-maximal response (EC50) at 72 h in series [4] (setting [5]) amounted to 4800 nM.
Regarding `Cn1cc(NC(=O)c2cnn3cccnc23)c(-c2cc(S(=O)(=O)C3CC3)ccc2OC(F)F)n1` [Example 22, N-[3-[5-cyclopropylsulfonyl-2-(difluoromethoxy)phenyl]-1-methyl-pyrazol-4-yl]pyrazolo[1,5-a]pyrimidine-3-carboxamide], the “Mouse LTB %” value in series [1] was 88.7%. Also, the results for the inhibition constant (Ki) in series [2] and in series [3] were 0.19 nM and 0.46 nM, respectively. For the same molecule, the EC50 at 72 h in series [4] (setting [5]) is 43000 nM.
As for `CNS(=O)(=O)c1ccc(OC(F)F)c(-c2nn(C)cc2NC(=O)c2cnn3cccnc23)c1` [Example 26, N-[3-[2-(difluoromethoxy)-5-(methylsulfamoyl)phenyl]-1-methyl-pyrazol-4-yl]pyrazolo[1,5-a]pyrimidine-3-carboxamide], the “Mouse LTB %” value in series [1] came out at 86.9%. For the same molecule, the inhibitory constant (Ki) in series [2] was 0.097 nM; in series [3] it was 0.16 nM. In series [4] (setting [5]), the EC50 at 72 h was determined as 5800 nM.
As for `CS(=O)(=O)c1ccc(OC(F)F)c(-c2nn(CC#N)cc2NC(=O)c2cnn3cccnc23)c1` [Example 28, N-[1-(cyanomethyl)-3-[2-(difluoromethoxy)-5-methylsulfonyl-phenyl]pyrazol-4-yl]pyrazolo[1,5-a]pyrimidine-3-carboxamide], in series [1], the “Lung tissue binding, %” value was 70.8% and the “Mouse LTB %” value came out at 70.8%. Besides, the Ki in series [2] came out at 0.14 nM. Besides, in series [3], the inhibitory constant (Ki) worked out at 0.24 nM. Moreover, the 50% effective concentration (EC50) at 72 h in series [4] (setting [5]) worked out at 24000 nM.
Turning to `CN(C)S(=O)(=O)c1ccc(OC(F)F)c(-c2nn(C)cc2NC(=O)c2cnn3cccnc23)c1` [Example 30, N-[3-[2-(difluoromethoxy)-5-(dimethylsulfamoyl)phenyl]-1-methyl-pyrazol-4-yl]pyrazolo[1,5-a]pyrimidine-3-carboxamide], the “Mouse LTB %” value in series [1] is given as 83.1%. The figures for the Ki in series [2] and in series [3] were 0.14 nM and 0.22 nM, respectively. Also, in series [4] (setting [5]), the EC50 at 72 h is 2400 nM.
`Cn1cc(S(=O)(=O)c2ccc(OC(F)F)c(-c3nn(C)cc3NC(=O)c3cnn4cccnc34)c2)cn1` [Example 35, N-[3-[2-(difluoromethoxy)-5-(1-methylpyrazol-4-yl)sulfonyl-phenyl]-1-methyl-pyrazol-4-yl]pyrazolo[1,5-a]pyrimidine-3-carboxamide]: in series [1], the “Lung tissue binding, %” value is 86.2%. The “Mouse LTB %” value in series [1] is 86.2%. Moreover, the Ki was 0.19 nM in series [2] and 0.3 nM in series [3]. The EC50 at 72 h in series [4] (setting [5]) was 17000 nM.
As for `Cn1cc(NC(=O)c2cnn3cccnc23)c(-c2cc(S(=O)(=O)c3ccccc3)ccc2OC(F)F)n1` [Example 40, N-[3-[5-(benzenesulfonyl)-2-(difluoromethoxy)phenyl]-1-methyl-pyrazol-4-yl]pyrazolo[1,5-a]pyrimidine-3-carboxamide], the “Mouse LTB %” value in series [1] is 95.6%. Further, the Ki was found to be 0.11 nM in series [2] and 0.21 nM in series [3]. Moreover, in series [4] (setting [5]), the concentration for a half-maximal effect (EC50) at 72 h is ≥ 50000 nM.
In the same order, the values of `Cn1cc(NC(=O)c2cnn3cccnc23)c(-c2cc(S(=O)(=O)c3cn[nH]c3)ccc2OC(F)F)n1` [Example 41, N-[3-[2-(difluoromethoxy)-5-(1H-pyrazol-4-ylsulfonyl)phenyl]-1-methyl-pyrazol-4-yl]pyrazolo[1,5-a]pyrimidine-3-carboxamide] are 91.2%, 0.1 nM, 0.18 nM and 28000 nM.
For `Cn1cc(NC(=O)c2cnn3cccnc23)c(-c2cc(S(=O)(=O)c3ccn(C)c(=O)c3)ccc2OC(F)F)n1` [Example 44, N-[3-[2-(difluoromethoxy)-5-[(1-methyl-2-oxo-4-pyridyl)sulfonyl]phenyl]-1-methyl-pyrazol-4-yl]pyrazolo[1,5-a]pyrimidine-3-carboxamide], in series [1], the “Mouse LTB %” value is listed as 86.5%. Further, the Ki in series [2] was determined as 0.34 nM; in series [3], 0.52 nM. In addition, in series [4] (setting [5]), the 50% effective concentration (EC50) at 72 h was 7000 nM.
With `N#CCn1cc(NC(=O)c2cnn3cccnc23)c(-c2cc(S(=O)(=O)C3CC3)ccc2OC(F)F)n1` [Example 45, N-[1-(cyanomethyl)-3-[5-cyclopropylsulfonyl-2-(difluoromethoxy)phenyl]pyrazol-4-yl]pyrazolo[1,5-a]pyrimidine-3-carboxamide], in series [1], the “Mouse LTB %” value is reported as 87.9%. Moreover, the Ki was determined as 0.35 nM in series [2] and 0.71 nM in series [3]. In addition, the EC50 at 72 h in series [4] (setting [5]) is ≥ 50000 nM.
As for `Cn1cc(NC(=O)c2cnn3cccnc23)c(-c2cc3c(cc2OC(F)F)NCCS3(=O)=O)n1` [Example 46, N-[3-[6-(difluoromethoxy)-1,1-dioxo-3,4-dihydro-2H-1lambda6,4-benzothiazin-7-yl]-1-methyl-pyrazol-4-yl]pyrazolo[1,5-a]pyrimidine-3-carboxamide], the “Mouse LTB %” value in series [1] is recorded as 89.9%. The inhibition constant Ki in series [2] stood at 0.087 nM; in series [3], 0.26 nM. Moreover, in series [4] (setting [5]), the EC50 at 72 h is ≥ 50000 nM.
In the same order, the values of `CN(C)CCn1cc(S(=O)(=O)c2ccc(OC(F)F)c(-c3nn(C)cc3NC(=O)c3cnn4cccnc34)c2)cn1` [Example 49, N-[3-[2-(difluoromethoxy)-5-[1-[2-(dimethylamino)ethyl]pyrazol-4-yl]sulfonyl-phenyl]-1-methyl-pyrazol-4-yl]pyrazolo[1,5-a]pyrimidine-3-carboxamide] are 84.4%, 0.37 nM, 0.5 nM and 14000 nM.
As for `Cn1cc(NC(=O)c2cnn3cccnc23)c(-c2cc(S(=O)(=O)CCCO)ccc2OC(F)F)n1` [Example 63, N-[3-[2-(difluoromethoxy)-5-(3-hydroxypropylsulfonyl)phenyl]-1-methyl-pyrazol-4-yl]pyrazolo[1,5-a]pyrimidine-3-carboxamide], in series [1], the “Mouse LTB %” value came to 80.5%. In addition, the Ki in series [2] came out at 0.28 nM; in series [3] it was 0.58 nM. Moreover, in series [4] (setting [5]), the concentration for a half-maximal effect (EC50) at 72 h is 20000 nM.
Take `CN(CCO)S(=O)(=O)c1ccc(OC(F)F)c(-c2nn(C)cc2NC(=O)c2cnn3cccnc23)c1` [Example 73, N-(3-(2-(difluoromethoxy)-5-(N-(2-hydroxyethyl)-N-methylsulfamoyl)phenyl)-1-methyl-1H-pyrazol-4-yl)pyrazolo[1,5-a]pyrimidine-3-carboxamide]: the “Mouse LTB %” value in series [1] is reported as 81.8%. Besides, the inhibitory constant (Ki) in series [2] came out at 0.21 nM; in series [3] it was 0.63 nM. Besides, in series [4] (setting [5]), the EC50 at 72 h was 2900 nM.

In general, Ki refers to a dissociation constant, usually derived from enzyme kinetics or from competition with a known ligand. As usually defined, the EC50 is the concentration at which the effect is half-maximal.

Source of the values: patent US11453671B2, “Pyrazolopyrimidine inhibitors of JAK kinases and uses thereof” (Genentech, Inc., priority 2020, dated 2022).
